Test results as given in patent US5189169A (priority 1991, dated 1993).
Several values for one entry are separate records, joined by “and”; a condition that tells them apart may be missing. Equal values may be shown once.

Assays:
Conditions in all cases: in vivo
[1] = test system: three broadleaf weeds (morning glory, mustard, velvetleaf); parameters: species or system Ipomoea purpurea, Brassica kaber, Abutilon theophrasti
[2] = test system: yellow nutsedge; parameters: species or system Cyperus esculentus
[3] = test system: three broadleaf weeds (morning glory, mustard, velvetleaf); parameters: species or system Ipomoea purpurea, Brassica kaber, Abutilon theophrasti; remark: listed apart in the source
[4] = test system: three grassy weeds (wild oat, watergrass, foxtail); parameters: species or system Avena fatua, Echinochloa crusgalli, Setaria viridis
[5] = test system: three grassy weeds (wild oat, watergrass, foxtail); parameters: species or system Avena fatua, Echinochloa crusgalli, Setaria viridis; remark: listed apart in the source
[6] = test system: yellow nutsedge; parameters: species or system Cyperus esculentus; remark: listed apart in the source

Structure (SMILES): CCCCN(CCCC)P(=O)(SCCC)N(C)c1ccc(Cl)cc1Cl (stereo not drawn) [Compound 23]
- % Control, Pre-emergence, BL avg. [1]: 0%
- % Control, Post-emergence, NS [2]: 0%
- % Control, Post-emergence, BL avg. [3]: 50% and 43%
- % Control, Pre-emergence, GR avg. [4]: 0%
- % Control, Post-emergence, GR avg. [5]: 20% and 13%
- % Control, Pre-emergence, NS [6]: 0%

Structure (SMILES): CCCSP(=O)(N(CCC)CCC)N(CCC)c1ccc(C(C)C)cc1 (stereo not drawn) [Compound 59]
- % Control, Pre-emergence, BL avg. [1]: 0%
- % Control, Post-emergence, NS [2]: 0%
- % Control, Post-emergence, BL avg. [3]: 50% and 55%
- % Control, Pre-emergence, GR avg. [4]: 0%
- % Control, Post-emergence, GR avg. [5]: 10% and 6%
- % Control, Pre-emergence, NS [6]: 0%

Structure (SMILES): CCCSP(=O)(N(CCC)CCC)N(C)c1cc(F)c(F)cc1F (stereo not drawn) [Compound 48]
- % Control, Pre-emergence, BL avg. [1]: 0%
- % Control, Post-emergence, NS [2]: 0%
- % Control, Post-emergence, BL avg. [3]: 90% and 80%
- % Control, Pre-emergence, GR avg. [4]: 0%
- % Control, Post-emergence, GR avg. [5]: 80% and 40%
- % Control, Pre-emergence, NS [6]: 0%

Structure (SMILES): CCCSP(=O)(N(CCC)CCC)N(C)c1ccc(Br)cc1C (stereo not drawn) [Compound 39]
- % Control, Pre-emergence, BL avg. [1]: 0%
- % Control, Post-emergence, NS [2]: 80%
- % Control, Post-emergence, BL avg. [3]: 93%
- % Control, Pre-emergence, GR avg. [4]: 0%
- % Control, Post-emergence, GR avg. [5]: 67%
- % Control, Pre-emergence, NS [6]: 0%
